Assay results taken from the OPERA property sets (Mansouri et al. 2018).

logP	Structure (SMILES)
3.44	CC(C)(C)N(NC(=O)c1ccccc1)C(=O)c1cc(F)c(F)c(F)c1F
2.04	COc1ccccc1C(=O)N(NC(=O)c1ccccc1)C(C)(C)C
2.56	CC(C)(C)N(NC(=O)c1ccccc1)C(=O)c1c(Cl)cccc1Cl
3.78	CC(C)(C)N(NC(=O)c1ccccc1)C(=O)c1ccc(I)cc1
3.25	CC(C)(C)N(NC(=O)c1ccccc1)C(=O)c1c(F)c(F)c(F)c(F)c1F
4.25	CC(C)(C)N(NC(=O)c1ccccc1)C(=O)c1ccc(Cl)c(Cl)c1
3.1	Cc1cccc(C(=O)N(NC(=O)c2ccccc2)C(C)(C)C)c1C
2.85	CC(C)(C)N(NC(=O)c1ccccc1)C(=O)c1ccc(F)cc1
3.25	Cc1ccc(C)c(C(=O)N(NC(=O)c2ccccc2)C(C)(C)C)c1
2.96	CCc1ccccc1C(=O)N(NC(=O)c1ccccc1)C(C)(C)C
2.5	CC(C)(C)N(NC(=O)c1ccccc1)C(=O)c1ccc(C#N)cc1
3.61	CC(C)(C)N(NC(=O)c1ccccc1)C(=O)c1cccc(C(F)(F)F)c1
3.57	Cc1c(Cl)cccc1C(=O)N(NC(=O)c1ccccc1)C(C)(C)C
2.83	CC(C)(C)N(NC(=O)c1ccccc1)C(=O)c1ccccc1I
2.16	CC(C)(C)N(NC(=O)c1ccccc1)C(=O)c1c(F)cccc1F
3.72	CC(C)(C)N(NC(=O)c1ccccc1)C(=O)c1cccc(I)c1
3.41	CC(C)(C)N(NC(=O)c1ccccc1)C(=O)c1cccc(Cl)c1Cl
3.28	CC(C)(C)N(NC(=O)c1ccccc1)C(=O)c1cccc(Cl)c1
3.66	CC(C)(C)N(NC(=O)c1ccccc1)C(=O)c1ccc(Br)cc1
3.77	CC(C)(C)N(NC(=O)c1ccccc1)C(=O)c1ccc(C(F)(F)F)cc1
3.36	CC(C)(C)N(NC(=O)c1ccccc1)C(=O)c1cc(Cl)ccc1Cl

logP	Structure (SMILES)
3.49	CC(C)(C)N(NC(=O)c1ccccc1)C(=O)c1cccc(Br)c1
2.73	CC(C)(C)N(NC(=O)c1ccccc1)C(=O)c1cccc([N+](=O)[O-])c1
2.34	CC(C)(C)N(NC(=O)c1ccccc1)C(=O)c1cccc(C#N)c1
2.6	CSc1ccccc1C(=O)N(NC(=O)c1ccccc1)C(C)(C)C
2.38	CC(C)(C)N(NC(=O)c1ccccc1)C(=O)c1ccccc1F
2.69	CC(C)(C)N(NC(=O)c1ccccc1)C(=O)c1ccccc1Br
3.18	Cc1ccc(C(=O)N(NC(=O)c2ccccc2)C(C)(C)C)c(C)c1
2.27	CC(C)(C)N(NC(=O)c1ccccc1)C(=O)c1ccccc1[N+](=O)[O-]
2.79	Cc1cccc(C(=O)N(NC(=O)c2ccccc2)C(C)(C)C)c1
2.75	Cc1ccccc1C(=O)N(NC(=O)c1ccccc1)C(C)(C)C
2.78	CC(C)(C)N(NC(=O)c1ccccc1)C(=O)c1cccc(F)c1
2.56	COc1cccc(C(=O)N(NC(=O)c2ccccc2)C(C)(C)C)c1
3.42	CC(C)(C)N(NC(=O)c1ccccc1)C(=O)c1ccc(Cl)cc1
2.63	CC(C)(C)N(NC(=O)c1ccccc1)C(=O)c1ccc([N+](=O)[O-])cc1
3.34	Cc1ccc(C(=O)N(NC(=O)c2ccccc2)C(C)(C)C)cc1C
2.34	CC(C)(C)N(NC(=O)c1ccccc1)C(=O)c1c(F)cccc1Cl
2.56	COc1ccc(C(=O)N(NC(=O)c2ccccc2)C(C)(C)C)cc1
2.75	CC(C)(C)N(NC(=O)c1ccccc1Cl)C(=O)c1ccccc1Cl
2.09	COc1ccc(C(=O)N(NC(=O)c2ccccc2)C(C)(C)C)cc1OC
2.99	Cc1ccc(C(=O)N(NC(=O)c2ccccc2)C(C)(C)C)cc1
3.55	CC(C)(C)N(NC(=O)c1ccccc1)C(=O)c1ccc(Cl)cc1Cl

Structure (SMILES)	logP
CC(C)(C)N(NC(=O)c1cccc(Cl)c1)C(=O)c1ccccc1Cl	3.49
Cc1cc(C)cc(C(=O)N(NC(=O)c2ccccc2)C(C)(C)C)c1	3.39
CC(C)(C)N(NC(=O)c1ccccc1)C(=O)c1ccccc1	2.45
CC(C)(C)N(NC(=O)c1ccccc1)C(=O)c1ccccc1C(F)(F)F	2.85
